This experiment concerns the target L. monocytogenes AgrC (Listeria monocytogenes serovar 1/2a, UniProt Q8YAR5). Briefly: Fluorescence (agr-GFP) reporter agonism assay, ΔagrD reporter strain. It counts as cell-based. Also noted: Emax: dose or concentration left out as unconfirmed. The settings on record: for agonism activity (in words): ΔagrD reporter. From the text:
Construction of Listeria agr Reporter Strains. A gene block was designed and purchased from Integrated DNA Technologies to contain an EagI recognition site, the PII promoter of the agr system, the 3′ UTR of hly, super folder GFP, and a SaII recognition site. The gene block was digested with EagI and SaII, cloned into an EagI/SaII-cut pAM401 plasmid resulting in the plasmid pAM401-KW1, and then transformed into E. coli XL1-Blue competent cells. The insertion into pAM401 was confirmed using Kapa polymerase and primers DAP337 and DAP338, and additional confirmation via commercial sequencing. Purified plasmid was transformed into the conjugative E. coli S17 strain, which was used to conjugate to EGD-e and EGD-e ΔagrD to generate the agr-GFP reporter strains EGD-e:pAM401-KW1 and EGD-e ΔagrD:pAM401-KW1. Conjugation was verified using primers DAP337 and DAP338.
Fluorescence reporter assay protocol. For QS (agr) reporter assays, peptide stock solutions in DMSO (1 mM) were serially diluted in DMSO, and 2 μL of solution was added to each well in a black 96-well plate (polystyrene microtiter plate, Costar). Agonism assays utilized the ΔagrD reporter strain, with 2 μL of 100 μM AIP (final concentration 1 μM) as a positive control and 2 μL of DMSO as a negative control. Antagonism assays utilized the EGD-e reporter strain, with 2 μL of DMSO as a positive control. In both assays, wells containing only BHI media served as negative controls for normalization. An overnight culture of bacteria was diluted 1:50 in fresh BHI, then 198 μL were transferred to each well (excluding the media control wells). Plates were then incubated at 37° C. for 24 hours with shaking at 200 rpm. Fluorescence of GFP (excitation at 500 nm, emission at 540 nm) and OD600 of each well was measured using BioTek Synergy 2 plate reader. Measurements were processed by subtracting background fluorescence (BHI media), correcting by OD600, and the normalizing using the 1 μM AIP or the DMSO control for the agonism and antagonism assays, respectively. Non-linear regression curves were fitted to the data sets in GraphPad Prism 7 by using variable slope (four-parameter) dose-response analysis to obtain potency, efficacy, and statistical information about the activity of tested peptides. Each peptide was tested with three technical replicates and three biological replicates. All data derived from fluorescent reporter strains are represented with data points signifying the mean and error bars signifying the standard deviation from all replicates.
Preparation and Validation of Listeria agr Reporter Strains. In order to facilitate profiling the native AIP and its analogs for agr activity, L. monocytogenes agr GFP reporters were designed and constructed as described above (see Materials and General Methods). Briefly, a plasmid containing the agr promoter region upstream of gfp was transformed into wild-type (EGD-e) and ΔagrD L. monocytogenes strains. The wild-type reporter naturally produces its own AIP and is able to activate AgrC, which may subsequently phosphorylate AgrA for productive binding to DNA and triggering the production of GFP (FIG. 1A). The ΔagrD reporter, lacking the ability to produce its own AIP and thereby activate AgrC, is unable to trigger substantial production of GFP. However, adding exogenous AIP to the ΔagrD reporter results in an increase of fluorescence, indicating agr activity has been restored.

The mark [1] stands for this setting: read-out: Max Activation Observed.

Like-named read-outs stand apart in the source and are kept apart here. Where a SMILES comes first, the peptide text is derived from it. Bridges are numbered along the chain shown (N, C = ends). [ ]: non-standard residue; d: D form. dDap = NC[C@@H](N)C(=O)O

Sequence of L. monocytogenes AgrC (Q8YAR5 entry or part of it): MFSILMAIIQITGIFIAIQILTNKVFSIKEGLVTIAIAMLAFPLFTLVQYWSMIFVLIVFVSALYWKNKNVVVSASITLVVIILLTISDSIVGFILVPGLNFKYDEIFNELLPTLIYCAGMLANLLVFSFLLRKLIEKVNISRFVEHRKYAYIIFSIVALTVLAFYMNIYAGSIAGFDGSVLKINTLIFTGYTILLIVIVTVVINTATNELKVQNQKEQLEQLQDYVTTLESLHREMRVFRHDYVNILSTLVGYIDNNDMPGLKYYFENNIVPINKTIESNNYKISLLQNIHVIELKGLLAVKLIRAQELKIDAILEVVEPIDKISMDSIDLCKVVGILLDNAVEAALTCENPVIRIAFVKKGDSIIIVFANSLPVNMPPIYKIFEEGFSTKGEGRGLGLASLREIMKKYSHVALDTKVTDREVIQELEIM

Turning to `CC[C@H](C)[C@@H]1NC(=O)[C@H](CC(C)C)NC(=O)[C@H](Cc2ccccc2)NC(=O)[C@@H](NC(=O)[C@@H](N)CO)CSC(=O)[C@H](Cc2ccccc2)NC1=O` [L. newyorkensis AIP, S-(C-F-L-I-F), reference compound] (H-SCFLIF; thioester 2-C; N-terminus assumed), the “agonism or antagonism activity compared to vehicle (FIG. 1B)” value (10 μM, wild-type reporter or ΔagrD reporter) is “minimal efficacy”. Also, under “read-out: Max Activation”, the Emax is 23.6%. For the compound `CC(C)C[C@@H]1NC(=O)CNC(=O)[C@H](C(C)C)NC(=O)[C@@H](NC(=O)[C@@H](N)CO)CSC(=O)[C@H](CO)NC1=O` [L. kieliensis AIP, S-(C-V-G-L-S), reference compound] (H-SCVGLS; thioester 2-C; N-terminus assumed), the Emax (read-out: Max Activation) stood at 10.4%. In the case of `CSCC[C@@H]1NC(=O)[C@H](Cc2ccccc2)NC(=O)[C@@H](NC(=O)[C@@H](N)CCCCN)CSC(=O)[C@H](C(C)C)NC(=O)[C@H](Cc2ccccc2)NC1=O` [AIP A1K, K-(C-F-M-F-V)] (H-KCFMFV; thioester 2-C; N-terminus assumed), the “agonism activity (in words)” value is reported as “partial agonists with slightly diminished agonistic activity”. Also, the Emax under setting [1] stood at 80%. On to `CC(C)C[C@@H]1NC(=O)[C@H](C(C)C)NC(=O)[C@@H](NC(=O)[C@@H](N)CO)CSC(=O)[C@H](CC(C)C)NC(=O)[C@H](Cc2c[nH]cn2)NC1=O` [L. weihenstephanensis AIP, S-(C-V-L-H-L), reference compound] (H-SCVLHL; thioester 2-C; N-terminus assumed), for which the Emax (read-out: Max Activation) was 11.2%. Regarding `CSCC[C@@H]1NC(=O)[C@H](Cc2ccccc2)NC(=O)[C@H](NC(=O)[C@H](C)N)CSC(=O)[C@H](C(C)C)NC(=O)[C@H](Cc2ccccc2)NC1=O` [AIP C2dC, A-(dC-F-M-F-V)] (H-A[dC]FMFV; thioester 2-C; N-terminus assumed), the “agonism activity (in words)” value is on record as “lost a substantial amount of agonism activity”. The loss in potency entry (agonism, relative to native AIP) is on record as “three-fold”. Also, the Emax under setting [1] is 41%.

Regarding `CSCC[C@@H]1NC(=O)[C@H](Cc2ccccc2)NC(=O)[C@@H](NC(=O)[C@@H](N)[C@@H](C)O)CSC(=O)[C@H](C(C)C)NC(=O)[C@H](Cc2ccccc2)NC1=O` [AIP A1T, T-(C-F-M-F-V)] (H-TCFMFV; thioester 2-C; N-terminus assumed), the “agonism activity (in words)” value was “partial agonists with slightly diminished agonistic activity”. For the same compound, the Emax under setting [1] is 88.1%. Take `CSCC[C@@H]1NC(=O)[C@H](CO)NC(=O)[C@@H](NC(=O)[C@H](C)N)CSC(=O)[C@H](C(C)C)NC(=O)[C@H](Cc2ccccc2)NC1=O` [Lm AIP F3S, A-(C-S-M-F-V)] (H-ACSMFV; thioester 2-C; N-terminus assumed): the Emax (read-out: Max Activation) was found to be 16.1%.

As to `CC(C)C[C@@H]1NC(=O)[C@H](CO)NC(=O)[C@H](CO)NC(=O)[C@@H](NC(=O)[C@H](C)NC(=O)[C@H](CC(N)=O)NC(=O)[C@@H](NC(=O)CN)C(C)C)CSC(=O)[C@H](Cc2ccccc2)NC1=O` [Sa AIP-II, G-V-N-A-(C-S-S-L-F), reference compound] (H-GVNACSSLF; thioester 5-C), the Emax (read-out: Max Activation) stood at 12%. With `CSCC[C@@H]1NC(=O)[C@H](Cc2ccccc2)NC(=O)[C@H](NC(=O)[C@H](C)N)CNC(=O)[C@H](C(C)C)NC(=O)[C@H](Cc2ccccc2)NC1=O` [AIP C2dDap, A-(Dap-F-M-F-V)] (H-A[dDap]FMFV; lactam 2-C; N-terminus assumed), the “agonism activity (in words)” value is “little or no agr activation”. Further, the Emax under setting [1] amounted to 14.3%. As for `CSCC[C@@H]1NC(=O)[C@H](Cc2ccccc2)NC(=O)[C@@H](NC(=O)[C@H](C)N)CSC(=O)[C@H](C(C)C)NC(=O)[C@H](Cc2ccc(O)cc2)NC1=O` [AIP F5Y, A-(C-F-M-Y-V)] (H-ACFMYV; thioester 2-C; N-terminus assumed), the Emax under setting [1] is 44.4%.

The record behind these values is US12116424B2, “Compounds and compositions for modulating Listeria virulence” (priority 2021, dated 2024).
